Patent US10399992B2, “Process for preparing AD-35” (Zhejiang Hisun Pharmaceutical Co., Ltd., priority 2016, dated 2019)

Assays:
[1] = biological target: acetylcholinesterase (Homo sapiens, UniProt P22303); experiment: inhibiting acetylcholinesterase in vitro; type: biochemical; conditions: compared with donepezil
[2] = Morris water maze test; type: in vivo; conditions: compared with donepezil
[3] = test system: TNF-α; experiment: rat model of Alzheimer's disease induced by Aβ25-35: TNF-α production and release; type: in vivo
[4] = test system: IL-1β; experiment: rat model of Alzheimer's disease induced by Aβ25-35: IL-1β production and release; type: in vivo
[5] = test system: nerve cells; experiment: rat model of Alzheimer's disease induced by Aβ25-35: toxicity of Aβ25-35 to nerve cells; type: in vivo
[6] = chelation of transition metal ions in vitro; type: physicochemical
[7] = Phase 1 Clinical Single Ascending Dose study (SAD); type: in vivo; conditions: subjects; 90 mg in a single dose
[8] = acute toxicity test in mice; conditions: compared with donepezil

Chain of acetylcholinesterase (P22303 32-614): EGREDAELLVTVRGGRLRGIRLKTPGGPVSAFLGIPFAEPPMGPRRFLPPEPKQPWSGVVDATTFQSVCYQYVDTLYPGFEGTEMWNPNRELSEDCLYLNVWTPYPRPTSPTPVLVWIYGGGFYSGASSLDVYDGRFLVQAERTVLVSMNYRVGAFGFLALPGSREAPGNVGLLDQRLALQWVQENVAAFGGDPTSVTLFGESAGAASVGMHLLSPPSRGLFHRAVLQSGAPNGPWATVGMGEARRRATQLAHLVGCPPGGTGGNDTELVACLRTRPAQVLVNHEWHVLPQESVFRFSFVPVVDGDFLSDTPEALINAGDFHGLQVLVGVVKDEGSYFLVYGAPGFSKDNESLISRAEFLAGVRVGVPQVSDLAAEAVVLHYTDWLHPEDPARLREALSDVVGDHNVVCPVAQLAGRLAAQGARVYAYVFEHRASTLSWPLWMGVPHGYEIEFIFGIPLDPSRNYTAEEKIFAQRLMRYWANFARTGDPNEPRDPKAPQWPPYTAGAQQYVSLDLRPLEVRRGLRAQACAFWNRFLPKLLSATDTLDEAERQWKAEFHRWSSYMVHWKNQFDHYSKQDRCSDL

O=C1c2cc3c(cc2C2(CC2)N1CCC1CCN(Cc2ccccn2)CC1)OCO3 [AD-35, 6-[2-[1-(2-pyridylmethyl)-4-piperidinyl]ethyl]spiro[[1,3]dioxolo[4,5-f]isoindole-7,1′-cyclopropane]-5-one phosphate]
activity of inhibiting acetylcholinesterase in vitro relative to donepezil [1]: about one-tenth of the activity of donepezil
efficacy in the Morris water maze test (improving memory and learning ability) [2]: comparable efficacy to that of donepezil
production and release of pro-inflammatory cytokine TNF-α [3]: significantly inhibit
production and release of pro-inflammatory cytokine IL-1β [4]: significantly inhibit
toxicity of Aβ25-35 to nerve cells [5]: greatly reduces the toxicity of Aβ25-35 to nerve cells
ability to chelate transition metal ions such as Cu^2+ [6]: exhibits a certain ability to chelate transition metal ions
adverse reactions [7]: did not develop adverse reactions
acute toxicity [8]: much less toxic than donepezil
